Columns and labels:
[1] = test system: Rattus norvegicus; experiment: Serum creatinine concentration measured after intraperitoneal administration of 10 mg/kg of compound to rats(vehicle 4.26+/-0.39); format: functional
[2] = test system: Rattus norvegicus; experiment: Effect on urinary excretion potassium and sodium after oral administration of 1.6 mg/kg to rats(potassium and sodium excretion in control rat is 0.158+/-0.034); format: functional, Urine
[3] = test system: Rattus norvegicus; experiment: Ratio of urinary excretion value (urinary volume) in treated rats to that in control rats, at a peroral dose of 25 mg/Kg; format: functional, Urine
[4] = test system: Rattus norvegicus; experiment: Percent inhibition of serum creatinine by the compound given as ratio of UN value in treated to vehicle treated ones after intraperitoneal administration of 10 mg/kg of compound to rats(vehicle 146.7+/-10.1); format: functional; conditions: ip
[5] = test system: Rattus norvegicus; experiment: Percent inhibition of serum creatinine by the compound given as ratio of Cr value in treated to vehicle treated ones after intraperitoneal administration of 10 mg/kg of compound to rats(vehicle 4.26+/-0.39); format: functional; conditions: ip
[6] = test system: Rattus norvegicus; experiment: Effect on urinary excretion potassium and sodium after oral administration of 25 mg/kg to rats(potassium and sodium excretion in control rat is 0.079+/-0.007); format: functional, Urine
[7] = test system: Rattus norvegicus; experiment: Ratio of urinary excretion value (urinary volume) in treated rats to that in control rats, at a peroral dose of 1.6 mg/Kg; format: functional, Urine
[8] = test system: Rattus norvegicus; experiment: Ratio of urinary excretion value (Na+ concentration) in treated rats to that in control rats, at a peroral dose of 25 mg/Kg; format: functional, Urine
[9] = test system: Rattus norvegicus; experiment: Ratio of sodium ion/potassium ion concentration in treated rats to that in control rats, at a peroral dose of 1.6 mg/Kg; format: functional
[10] = test system: Rattus norvegicus; experiment: Urea nitrogen concentration measured after intraperitoneal administration of 1 mg/kg of compound to rats(vehicle 120.9+/-23.3); format: functional
[11] = test system: Rattus norvegicus; experiment: Oral diuretic activity was measured after oral administration of 1.6 mg/kg to rats(control volume is 1.12+/-0.33); format: functional, Urine
[12] = test system: Rattus norvegicus; experiment: Ratio of sodium ion/potassium ion concentration in treated rats to that in control rats, at a peroral dose of 25 mg/Kg; format: functional
[13] = test system: Rattus norvegicus; experiment: Serum creatinine concentration measured after intraperitoneal administration of 1 mg/kg of compound to rats(vehicle 3.06+/-0.68); format: functional
[14] = test system: Rattus norvegicus; experiment: Urea nitrogen concentration measured after intraperitoneal administration of 10 mg/kg of compound to rats(vehicle 146.7+/-10.1); format: functional
[15] = biological target: Adenosine A2 receptor (Rattus norvegicus, UniProt P29276+P30543)
[16] = test system: Rattus norvegicus; experiment: Percent inhibition of serum creatinine by the compound given as ratio of Cr value in treated to vehicle treated ones after intraperitoneal administration of 1 mg/kg of compound to rats(vehicle 3.06+/-0.68); format: functional; conditions: ip
[17] = test system: Rattus norvegicus; experiment: Percent inhibition of serum creatinine by the compound given as ratio of UN value in treated to vehicle treated ones after intraperitoneal administration of 1 mg/kg of compound to rats(vehicle 120.9+/-23.3); format: functional; conditions: ip
[18] = test system: Rattus norvegicus; experiment: Ratio of urinary excretion value (Na+ concentration) in treated rats to that in control rats, at a peroral dose of 1.6 mg/Kg; format: functional, Urine
[19] = test system: Rattus norvegicus; experiment: Oral diuretic activity was measured after oral administration of 25 mg/kg to rats(control volume is 0.69+/-0.03); format: functional, Urine
[20] = organism: Rattus norvegicus; experiment: Ratio of sodium ion/potassium ion concentration in treated rats to that in control rats, at a peroral dose of 0.1; format: functional
[21] = test system: Rattus norvegicus; experiment: Percent inhibition of serum creatinine by the compound given as ratio of Cr value in treated to vehicle treated ones after intraperitoneal administration of 0.01 mg/kg of compound to rats(vehicle 3.92+/-0.23); format: functional; conditions: ip
[22] = test system: Rattus norvegicus; experiment: Effect on urinary excretion potassium and sodium after oral administration of 0.1 mg/kg to rats(potassium and sodium excretion in control rat is 0.180+/-0.017); format: functional, Urine
[23] = test system: Rattus norvegicus; experiment: Urea nitrogen concentration measured after intraperitoneal administration of 0.1 mg/kg of compound to rats(vehicle 151.5+/-7.4); format: functional
[24] = test system: Rattus norvegicus; experiment: Ratio of urinary excretion value (urinary volume) in treated rats to that in control rats, at a peroral dose of 0.4 mg/Kg; format: functional, Urine
[25] = test system: Rattus norvegicus; experiment: Oral diuretic activity was measured after oral administration of 0.1 mg/kg to rats(control volume is 1.05+/-0.11); format: functional, Urine
[26] = test system: Rattus norvegicus; experiment: Percent inhibition of Urea nitrogen by the compound given as ratio of UN value in treated to vehicle treated ones after intraperitoneal administration of 1 mg/kg of compound to rats(vehicle 195.8+/-14.4); format: functional; conditions: Rattus norvegicus, ip
[27] = test system: Rattus norvegicus; experiment: Oral diuretic activity was measured after oral administration of 0.4 mg/kg to rats(control volume is 0.96+/-0.09); format: functional, Urine
[28] = test system: Rattus norvegicus; experiment: Ratio of urinary excretion value (Na+ concentration) in treated rats to that in control rats, at a peroral dose of 0.4 mg/Kg; format: functional, Urine
[29] = test system: Rattus norvegicus; experiment: Serum creatinine concentration measured after intraperitoneal administration of 0.01 mg/kg of compound to rats(vehicle 3.92+/-0.23); format: functional
[30] = organism: Rattus norvegicus; experiment: animal or person; conditions: ip, read-out: Inhibition, dose 1 mg/kg, route intraperitoneal
[31] = test system: Rattus norvegicus; experiment: Serum creatinine concentration measured after intraperitoneal administration of 1 mg/kg of compound to rats(vehicle 5.07+/-0.33); format: functional
[32] = test system: Rattus norvegicus; experiment: Percent inhibition of serum creatinine by the compound given as ratio of Cr value in treated to vehicle treated ones after intraperitoneal administration of 0.1 mg/kg of compound to rats(vehicle 4.82+/-0.17); format: functional; conditions: ip
[33] = test system: Rattus norvegicus; experiment: Ratio of sodium ion/potassium ion concentration in treated rats to that in control rats, at a peroral dose of 0.4 mg/Kg; format: functional
[34] = test system: Rattus norvegicus; experiment: Effect on urinary excretion potassium and sodium after oral administration of 1.6 mg/kg to rats(potassium and sodium excretion in control rat is 0.169+/-0.012); format: functional, Urine
[35] = test system: Rattus norvegicus; experiment: Urea nitrogen concentration measured after intraperitoneal administration of 1 mg/kg of compound to rats(vehicle 195.8+/-14.4); format: functional
[36] = test system: Rattus norvegicus; experiment: Percent inhibition of Urea nitrogen by the compound given as ratio of UN value in treated to vehicle treated ones after intraperitoneal administration of 0.1 mg/kg of compound to rats(vehicle 151.5+/-7.4); format: functional; conditions: ip
[37] = test system: Rattus norvegicus; experiment: Percent inhibition of Urea nitrogen by the compound given as ratio of UN value in treated to vehicle treated ones after intraperitoneal administration of 0.01 mg/kg of compound to rats(vehicle 141.3+/-8.3); format: functional; conditions: ip
[38] = test system: Rattus norvegicus; experiment: Serum creatinine concentration measured after intraperitoneal administration of 0.1 mg/kg of compound to rats(vehicle 4.82+/-0.17); format: functional
[39] = test system: Rattus norvegicus; experiment: Effect on urinary excretion potassium and sodium after oral administration of 0.4 mg/kg to rats(potassium and sodium excretion in control rat is 0.147+/-0.015); format: functional, Urine
[40] = test system: Rattus norvegicus; experiment: Ratio of urinary excretion value (Na+ concentration) in treated rats to that in control rats, at a peroral dose of 0.1 mg/Kg; format: functional, Urine
[41] = test system: Rattus norvegicus; experiment: Ratio of urinary excretion value (urinary volume) in treated rats to that in control rats, at a peroral dose of 0.1 mg/Kg; format: functional, Urine
[42] = test system: Rattus norvegicus; experiment: Urea nitrogen concentration measured after intraperitoneal administration of 0.01 mg/kg of compound to rats(vehicle 141.3+/-8.3); format: functional
[43] = test system: Rattus norvegicus; experiment: Oral diuretic activity was measured after oral administration of 1.6 mg/kg to rats(control volume is 0.97+/-0.05); format: functional, Urine

CCCn1c(=O)c2nc(C[C@H]3CC4CCC3C4)[nH]c2n(CCC)c1=O (some centres not stated)
Cr [1]: 2.53 mg/dL | Na [2]: 0.131 m equiv 6hr-1 100g-1 | T/C [3]: 2.41 | inhibition in vivo at 10 mg/kg [4]: 38% | inhibition in vivo at 10 mg/kg [5]: 41% | Na [6]: 0.23 m equiv 6hr-1 100g-1 | T/C [7]: 0.77 | T/C [8]: 2.91 | Na+/K+ [9]: 0.85 | UN [10]: 104.7 mg/dL | Urine volume [11]: 0.86 ml 6hr-1 100g-1 | Na+/K+ [12]: 2.12 | Cr [13]: 2.75 mg/dL | UN [14]: 90.9 mg/dL | Ki [15]: 1000 nM | inhibition in vivo at 1 mg/kg [16]: 10% | inhibition in vivo at 1 mg/kg [17]: 13% | T/C [18]: 0.83 | Urine volume [19]: 1.66 ml 6hr-1 100g-1

Cn1c(=O)c2nc(C34CC5CC(CC3C5)C4)[nH]c2n(C)c1=O
Na+/K+ [20]: 0.97 | inhibition in vivo at 0.01 mg/kg [21]: 10% | Na [22]: 0.163 m equiv 6hr-1 100g-1 | T/C [7]: 2.34 | UN [23]: 97.3 mg/dL | T/C [24]: 1.66 | Urine volume [25]: 0.86 ml 6hr-1 100g-1 | inhibition in vivo at 1 mg/kg [26]: 40% | Urine volume [27]: 1.59 ml 6hr-1 100g-1 | Na+/K+ [9]: 1.67 | T/C [28]: 1.74 | Cr [29]: 3.53 mg/dL | inhibition in vivo at 1 mg/kg [30]: 43% | Cr [31]: 2.88 mg/dL | inhibition in vivo at 0.1 mg/kg [32]: 35% | Na+/K+ [33]: 1.54 | Ki [15]: 1200 nM | Na [34]: 0.398 m equiv 6hr-1 100g-1 | UN [35]: 116.7 mg/dL | inhibition in vivo at 0.1 mg/kg [36]: 36% | inhibition in vivo at 0.01 mg/kg [37]: 6% | T/C [18]: 2.36 | Cr [38]: 3.14 mg/dL | Na [39]: 0.257 m equiv 6hr-1 100g-1 | T/C [40]: 0.91 | T/C [41]: 0.82 | UN [42]: 133.4 mg/dL | Urine volume [43]: 2.27 ml 6hr-1 100g-1
